# Active and inactive are the calls of the source.
# How the values were obtained:
# [1] = biological target: T1, Mannose-6-phosphate isomerase (Homo sapiens, UniProt P34949); assay: phosphomannose isomerase inhibition – biochemical, fluorescence intensity, confirmation (AID 1535)
# T1 sequence (P34949 whole entry): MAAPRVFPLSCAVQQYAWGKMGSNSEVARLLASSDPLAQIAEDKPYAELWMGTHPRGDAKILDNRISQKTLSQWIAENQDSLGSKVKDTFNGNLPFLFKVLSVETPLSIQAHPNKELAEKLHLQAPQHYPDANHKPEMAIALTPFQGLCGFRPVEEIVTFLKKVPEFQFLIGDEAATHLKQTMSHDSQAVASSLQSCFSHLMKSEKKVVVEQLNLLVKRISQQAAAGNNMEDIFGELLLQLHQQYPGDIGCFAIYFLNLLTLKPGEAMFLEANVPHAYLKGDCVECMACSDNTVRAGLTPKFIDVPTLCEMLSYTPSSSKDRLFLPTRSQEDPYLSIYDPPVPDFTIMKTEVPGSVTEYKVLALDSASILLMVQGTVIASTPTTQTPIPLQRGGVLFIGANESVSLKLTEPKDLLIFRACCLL
# Leucine aminopeptidase = biological target: T2, Leucine aminopeptidase (Plasmodium falciparum 3D7, UniProt Q8IL11); assay: P. falciparum M17LAP inhibitors, primary screen, biochemical, fluorogenic H-Leu-NHMec substrate, 1536-well (AID 1619); format: functional
# T2 sequence (Q8IL11 whole entry): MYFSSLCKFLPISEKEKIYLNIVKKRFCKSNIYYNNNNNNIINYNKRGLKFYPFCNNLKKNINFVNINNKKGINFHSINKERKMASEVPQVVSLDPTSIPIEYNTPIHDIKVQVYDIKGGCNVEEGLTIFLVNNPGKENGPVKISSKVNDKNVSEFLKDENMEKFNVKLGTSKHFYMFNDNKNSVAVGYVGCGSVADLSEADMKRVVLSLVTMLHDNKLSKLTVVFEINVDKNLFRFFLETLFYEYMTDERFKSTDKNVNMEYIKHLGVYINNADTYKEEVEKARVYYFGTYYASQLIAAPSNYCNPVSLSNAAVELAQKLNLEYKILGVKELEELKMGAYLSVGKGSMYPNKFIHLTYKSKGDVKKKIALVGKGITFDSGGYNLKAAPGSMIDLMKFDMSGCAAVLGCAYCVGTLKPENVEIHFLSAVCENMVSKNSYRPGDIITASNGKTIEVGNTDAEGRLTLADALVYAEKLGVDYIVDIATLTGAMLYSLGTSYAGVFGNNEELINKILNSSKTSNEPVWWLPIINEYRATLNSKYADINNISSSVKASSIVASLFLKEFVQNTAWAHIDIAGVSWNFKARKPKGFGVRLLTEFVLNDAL
# [2] = biological target: Luciferin 4-monooxygenase (Photinus pyralis, UniProt P08659); assay: inhibition of purified Photinus pyralis luciferase – biochemical, luminescence, dose response (AID 1891)
# [3] = biological target: T3, DNA dC->dU-editing enzyme APOBEC-3A (Homo sapiens, UniProt P31941); assay: SAR analysis of small molecule inhibitors of APOBEC3A DNA Deaminase via a fluorescence-based single-stranded DNA deaminase assay.; format: functional; conditions: read-out: IC50_Mean
# T3 sequence (P31941 whole entry): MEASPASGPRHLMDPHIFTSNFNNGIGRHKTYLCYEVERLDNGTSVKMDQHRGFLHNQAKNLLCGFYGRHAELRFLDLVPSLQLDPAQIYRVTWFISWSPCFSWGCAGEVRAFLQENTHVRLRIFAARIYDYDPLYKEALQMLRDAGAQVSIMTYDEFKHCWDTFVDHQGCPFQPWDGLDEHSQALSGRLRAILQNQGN
# [4] = biological target: T3, DNA dC->dU-editing enzyme APOBEC-3A; assay: A3A deaminase inhibition for selectivity – biochemical, dose response (AID 504722); format: functional
# Phosphomannomutase 2 = Phosphomannomutase 2 (Homo sapiens, UniProt O15305); assay: Counter screen SAR assay for PMM2 inhibitors via a fluorescence intensity assay. [Related pubchem assays (depositor defined):AID1545, AID1574]
# [5] = biological target: T4, DNA dC->dU-editing enzyme APOBEC-3G (Homo sapiens, UniProt Q9HC16); assay: SAR analysis of small molecule inhibitors of APOBEC3G DNA Deaminase via a fluorescence-based single-stranded DNA deaminase assay - Set 2.; format: functional; conditions: read-out: IC50_Mean
# T4 sequence (Q9HC16 whole entry): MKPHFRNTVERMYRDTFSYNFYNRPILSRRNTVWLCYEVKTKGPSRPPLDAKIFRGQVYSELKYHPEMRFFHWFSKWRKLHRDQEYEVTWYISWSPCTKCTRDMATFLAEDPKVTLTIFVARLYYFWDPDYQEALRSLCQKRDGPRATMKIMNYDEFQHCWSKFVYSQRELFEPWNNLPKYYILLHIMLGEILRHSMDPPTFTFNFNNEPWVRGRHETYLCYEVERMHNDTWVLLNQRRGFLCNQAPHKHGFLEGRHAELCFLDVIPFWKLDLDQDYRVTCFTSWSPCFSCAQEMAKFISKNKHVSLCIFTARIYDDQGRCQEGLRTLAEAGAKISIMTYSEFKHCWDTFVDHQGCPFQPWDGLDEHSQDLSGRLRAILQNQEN
# [6] = biological target: T4, DNA dC->dU-editing enzyme APOBEC-3G; assay: Dose Response confirmation of small molecule APOBEC3G DNA Deaminase Inhibitors via a fluorescence-based single-stranded DNA deaminase assay. [Related pubchem assays (depositor defined):AID493012, AID493028]; format: functional
# [7] = biological target: T3, DNA dC->dU-editing enzyme APOBEC-3A; assay: SAR analysis of small molecule inhibitors of APOBEC3A DNA Deaminase via a fluorescence-based single-stranded DNA deaminase assay - Set 2.; format: functional; conditions: read-out: IC50_Mean
# [8] = biological target: T4, DNA dC->dU-editing enzyme APOBEC-3G; assay: inhibition of APOBEC3G ssDNA deamination – biochemical, fluorescence, single-stranded DNA substrate, SAR follow-up (AID 602136); format: functional; conditions: read-out: IC50_Mean
# [9] = biological target: FAD-linked sulfhydryl oxidase ALR (Homo sapiens, UniProt P55789); assay: ALR-catalysed DTT oxidation blockers – biochemical, H2O2 detection, luminescence, cherry-pick, dose response (AID 493248)
# [10] = Vero E6 cell cytotoxicity, dose response, cytotoxicity control for non-replicating M. tuberculosis project, secondary assay (AID 492998); format: functional, VeroE6; conditions: Vero C1008
# [11] = microbe, parasite or virus in culture; format: functional; conditions: Mycobacterium tuberculosis
# [12] = Trypanosoma cruzi growth suppression in host cells – NIH3T3 host cells, beta-gal luminescence, confirmation (AID 2044); format: functional, cell-based;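 further: intracellular parasites grown in NIH/3T3 mouse fibroblasts as host cells; luminescent beta-galactosidase reporter signal from transgenic T. cruzi replicating inside host cells; inhibitors lower the luminescence signal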
# [13] = Vero cell cytotoxicity, cytotoxicity control for M. tuberculosis inhibitor project, purified and synthesized samples, set 3 (AID 504684); format: functional
# [14] = A Cell Based Secondary Assay to Explore Cytotoxicity in HepG2 Cells of Compounds that Modulate Mycobacterium tuberculosis in Media Containing Glycerol versus Media without Glycerol (2).; format: functional
# [15] = Vero cell cytotoxicity, dose response, cytotoxicity control for M. tuberculosis growth inhibitor project, Vero cells, purified and synthesized compounds, set 4 (AID 504854); format: functional; conditions: Mycobacterium tuberculosis
# [16] = NIH3T3 cell viability loss – ATP luminescence, mouse fibroblasts, counter-screen, dose response (AID 2010); format: functional, cell-based;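 further: cells exposed to compound for about 90 hours before reading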
# [17] = THP-1 cell cytotoxicity, cytotoxicity control, set 4 (AID 504911); format: functional; conditions: Mycobacterium tuberculosis
# [18] = Vero cell cytotoxicity, dose response, cytotoxicity control for M. tuberculosis growth inhibitor project, Vero cells, purified and synthesized compounds, set 5 (AID 504909); format: functional; conditions: Mycobacterium tuberculosis
# [19] = THP-1 cell cytotoxicity, dose response, cytotoxicity control, set 3 (AID 504852); format: functional; conditions: Mycobacterium tuberculosis
# cells = format: functional
# [20] = HepG2 cell cytotoxicity, dose response, cytotoxicity control, set 3 (AID 504853); format: functional; conditions: Mycobacterium tuberculosis
# [21] = THP-1 cell cytotoxicity, dose response, cytotoxicity control for non-replicating M. tuberculosis project (AID 489025); format: functional
# [22] = HepG2 cell cytotoxicity, cytotoxicity control, set 4 (AID 504910); format: functional; conditions: Mycobacterium tuberculosis
# [23] = A Cell Based Secondary Assay to Explore Cytotoxicity in THP-1 Cells of Compounds that Modulate Mycobacterium tuberculosis in Media Containing Glycerol versus Media without Glycerol (2).; format: functional
# [24] = biological target: Mitogen-activated protein kinase kinase kinase kinase 4 (Homo sapiens, UniProt O95819); format: functional
# Mitogen-activated protein kinase kinase kinase kinase 4, sequence (O95819 whole entry): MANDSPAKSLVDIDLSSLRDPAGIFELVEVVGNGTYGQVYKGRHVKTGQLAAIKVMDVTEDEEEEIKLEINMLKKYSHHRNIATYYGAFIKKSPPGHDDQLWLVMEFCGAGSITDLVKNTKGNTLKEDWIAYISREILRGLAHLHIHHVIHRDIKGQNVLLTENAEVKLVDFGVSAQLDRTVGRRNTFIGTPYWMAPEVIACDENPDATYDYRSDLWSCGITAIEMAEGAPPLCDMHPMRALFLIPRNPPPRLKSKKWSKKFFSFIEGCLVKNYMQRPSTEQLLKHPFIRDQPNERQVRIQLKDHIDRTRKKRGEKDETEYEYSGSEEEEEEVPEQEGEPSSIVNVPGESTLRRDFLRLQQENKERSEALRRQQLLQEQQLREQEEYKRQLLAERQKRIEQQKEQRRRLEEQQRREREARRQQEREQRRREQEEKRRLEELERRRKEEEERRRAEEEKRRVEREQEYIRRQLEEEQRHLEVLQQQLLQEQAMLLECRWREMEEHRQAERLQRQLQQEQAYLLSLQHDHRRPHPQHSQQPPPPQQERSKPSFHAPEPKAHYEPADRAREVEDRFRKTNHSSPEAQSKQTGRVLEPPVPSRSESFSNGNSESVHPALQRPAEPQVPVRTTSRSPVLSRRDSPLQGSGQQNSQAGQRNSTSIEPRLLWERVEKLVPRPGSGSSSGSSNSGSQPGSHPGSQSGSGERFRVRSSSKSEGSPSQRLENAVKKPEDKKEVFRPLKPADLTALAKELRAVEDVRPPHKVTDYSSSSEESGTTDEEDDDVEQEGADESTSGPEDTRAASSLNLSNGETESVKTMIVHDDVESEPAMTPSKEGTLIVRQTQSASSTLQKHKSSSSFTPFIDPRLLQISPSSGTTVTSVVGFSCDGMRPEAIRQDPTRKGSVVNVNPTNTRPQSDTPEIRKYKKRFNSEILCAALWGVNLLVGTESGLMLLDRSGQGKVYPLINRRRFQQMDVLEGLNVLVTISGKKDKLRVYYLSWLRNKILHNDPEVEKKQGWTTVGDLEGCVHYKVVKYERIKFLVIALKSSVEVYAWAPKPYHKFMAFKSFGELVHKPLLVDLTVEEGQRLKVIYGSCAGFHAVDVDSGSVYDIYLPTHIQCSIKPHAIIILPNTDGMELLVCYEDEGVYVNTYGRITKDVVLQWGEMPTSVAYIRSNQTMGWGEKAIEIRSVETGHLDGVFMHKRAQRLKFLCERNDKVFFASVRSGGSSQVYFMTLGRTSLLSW
# [25] = biological target: Serine/threonine-protein kinase D3 (Homo sapiens, UniProt O94806); format: functional;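 further: determined within a kinase panel screen, with PRKCN as the panel member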
# [26] = biological target: Casein kinase I isoform delta (Homo sapiens, UniProt P48730); format: functional;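 further: measured as one member (CSNK1D) of a kinome panel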
# Casein kinase I isoform delta, sequence (P48730 whole entry, canonical isoform): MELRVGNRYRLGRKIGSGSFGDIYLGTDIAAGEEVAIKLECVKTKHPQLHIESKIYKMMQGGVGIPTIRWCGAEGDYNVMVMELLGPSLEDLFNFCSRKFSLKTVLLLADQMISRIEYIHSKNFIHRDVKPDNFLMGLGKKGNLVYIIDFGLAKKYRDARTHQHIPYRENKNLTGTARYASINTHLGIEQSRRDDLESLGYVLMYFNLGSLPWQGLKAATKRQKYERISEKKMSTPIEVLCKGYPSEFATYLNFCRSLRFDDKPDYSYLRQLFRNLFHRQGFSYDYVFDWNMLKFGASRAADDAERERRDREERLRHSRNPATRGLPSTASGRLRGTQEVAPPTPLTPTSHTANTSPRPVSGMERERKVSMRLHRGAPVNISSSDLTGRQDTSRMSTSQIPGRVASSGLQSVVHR
# [27] = biological target: Melanin-concentrating hormone receptor 1 (Homo sapiens, UniProt Q99705); assay: Late-stage fluorescence-based counterscreen for antagonists of the G-protein coupled receptor 7 (GPR7): cell-based dose response assay to identify antagonists of the melanin-concentrating hormone receptor 1 (MCHR1) Set 6.; format: functional
# [28] = biological target: T5, Neuropeptides B/W receptor type 1 (Homo sapiens, UniProt P48145); assay: human NPBW1 receptor blockade, IC50 – cell-based, fluorescence, dose response, set 6, late-stage follow-up (AID 588583); format: functional
# T5 sequence (P48145 whole entry): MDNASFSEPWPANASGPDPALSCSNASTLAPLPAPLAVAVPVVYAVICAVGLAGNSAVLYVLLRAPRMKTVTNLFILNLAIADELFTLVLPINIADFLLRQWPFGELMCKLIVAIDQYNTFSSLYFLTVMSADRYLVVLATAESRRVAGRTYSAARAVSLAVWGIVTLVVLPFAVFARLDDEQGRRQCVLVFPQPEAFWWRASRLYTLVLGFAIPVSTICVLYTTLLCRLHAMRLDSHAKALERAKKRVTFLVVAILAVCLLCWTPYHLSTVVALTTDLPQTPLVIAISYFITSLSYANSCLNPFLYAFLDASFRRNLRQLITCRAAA
# [29] = biological target: Serine/threonine-protein kinase PLK1 (Homo sapiens, UniProt P53350); format: functional;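 further: PLK1 measured as one member of a kinome-wide profiling panel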
# [30] = biological target: Serine/threonine-protein kinase Nek2 (Homo sapiens, UniProt P51955); format: functional
# Serine/threonine-protein kinase Nek2, sequence (P51955 whole entry): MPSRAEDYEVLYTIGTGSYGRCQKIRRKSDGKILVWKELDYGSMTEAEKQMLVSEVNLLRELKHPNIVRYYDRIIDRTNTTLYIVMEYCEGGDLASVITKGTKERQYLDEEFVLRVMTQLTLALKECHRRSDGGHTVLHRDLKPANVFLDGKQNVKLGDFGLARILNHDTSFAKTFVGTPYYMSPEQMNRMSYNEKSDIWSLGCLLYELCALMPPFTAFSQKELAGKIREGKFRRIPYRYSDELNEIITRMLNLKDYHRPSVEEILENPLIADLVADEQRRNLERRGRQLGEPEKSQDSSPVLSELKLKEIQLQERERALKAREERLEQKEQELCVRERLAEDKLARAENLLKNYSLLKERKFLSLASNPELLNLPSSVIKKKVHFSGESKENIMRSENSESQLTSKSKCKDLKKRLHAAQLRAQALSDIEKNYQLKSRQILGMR
# [31] = biological target: Ribosomal protein S6 kinase beta-1 (Homo sapiens, UniProt P23443); format: functional;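 further: measured as one member of a kinome-wide profiling panel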
# [32] = biological target: Serine/threonine-protein kinase PLK3 (Homo sapiens, UniProt Q9H4B4); format: functional
# [33] = biological target: Dual specificity tyrosine-phosphorylation-regulated kinase 1A (Homo sapiens, UniProt Q13627); format: functional;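 further: measured against DYRK1A as one member of a broad kinome profiling panel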
# [34] = biological target: Vascular endothelial growth factor receptor 3 (Homo sapiens, UniProt P35916); format: functional;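 further: value from a kinome-wide profiling panel, with FLT4 as the panel member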
# Aurora kinase B = Aurora kinase B (Homo sapiens, UniProt Q96GD4); format: functional
# [35] = biological target: Tyrosine-protein kinase ABL1 (Homo sapiens, UniProt P00519); format: functional
# [36] = biological target: Dual specificity tyrosine-phosphorylation-regulated kinase 1B (Homo sapiens, UniProt Q9Y463); assay: Navigating the Kinome. Panel member name: DYRK1B; format: functional
# Dual specificity tyrosine-phosphorylation-regulated kinase 1B, sequence (Q9Y463 whole entry, canonical isoform): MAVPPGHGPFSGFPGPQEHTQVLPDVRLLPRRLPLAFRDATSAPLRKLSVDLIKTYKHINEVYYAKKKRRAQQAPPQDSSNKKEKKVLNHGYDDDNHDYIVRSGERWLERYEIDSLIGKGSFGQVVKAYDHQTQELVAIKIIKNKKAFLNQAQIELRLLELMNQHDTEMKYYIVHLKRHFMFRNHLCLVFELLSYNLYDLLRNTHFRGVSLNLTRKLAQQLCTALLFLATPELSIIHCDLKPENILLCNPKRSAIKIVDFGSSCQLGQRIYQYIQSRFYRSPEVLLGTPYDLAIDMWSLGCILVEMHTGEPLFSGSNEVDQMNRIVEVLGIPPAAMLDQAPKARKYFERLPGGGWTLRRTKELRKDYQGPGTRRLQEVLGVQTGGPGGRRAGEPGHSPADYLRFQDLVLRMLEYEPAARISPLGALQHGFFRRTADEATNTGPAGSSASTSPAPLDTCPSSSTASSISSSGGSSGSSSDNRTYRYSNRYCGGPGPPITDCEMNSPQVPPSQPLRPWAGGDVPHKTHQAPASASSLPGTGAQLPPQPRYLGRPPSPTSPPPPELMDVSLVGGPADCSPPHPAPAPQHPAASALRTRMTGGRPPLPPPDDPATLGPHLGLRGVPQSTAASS
# [37] = biological target: Casein kinase I isoform alpha (Homo sapiens, UniProt P48729); format: functional
# Casein kinase I isoform alpha, sequence (P48729 whole entry, canonical isoform): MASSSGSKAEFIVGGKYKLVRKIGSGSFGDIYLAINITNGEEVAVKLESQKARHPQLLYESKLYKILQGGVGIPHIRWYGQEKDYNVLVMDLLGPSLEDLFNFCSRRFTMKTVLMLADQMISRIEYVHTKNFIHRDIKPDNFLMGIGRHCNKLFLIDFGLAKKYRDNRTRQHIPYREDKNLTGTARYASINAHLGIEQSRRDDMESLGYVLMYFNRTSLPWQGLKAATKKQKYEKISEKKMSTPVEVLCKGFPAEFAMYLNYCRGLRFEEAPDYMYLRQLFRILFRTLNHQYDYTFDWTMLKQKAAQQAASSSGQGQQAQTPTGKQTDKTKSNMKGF
# [38] = biological target: Platelet-derived growth factor receptor alpha (Homo sapiens, UniProt P16234); assay: Navigating the Kinome. Panel member name: PDGFRA; format: functional
# [39] = biological target: Cyclin-dependent kinase 7 (Homo sapiens, UniProt P50613); format: functional;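 further: value comes from a kinome-wide kinase profiling panel in which CDK7 is one member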
# [40] = biological target: Mitogen-activated protein kinase kinase kinase kinase 2 (Homo sapiens, UniProt Q12851); format: functional;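 further: measured as one member of a kinome-wide kinase panel, with MAP4K2 as the panel entry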
# Mitogen-activated protein kinase kinase kinase kinase 2, sequence (Q12851 whole entry): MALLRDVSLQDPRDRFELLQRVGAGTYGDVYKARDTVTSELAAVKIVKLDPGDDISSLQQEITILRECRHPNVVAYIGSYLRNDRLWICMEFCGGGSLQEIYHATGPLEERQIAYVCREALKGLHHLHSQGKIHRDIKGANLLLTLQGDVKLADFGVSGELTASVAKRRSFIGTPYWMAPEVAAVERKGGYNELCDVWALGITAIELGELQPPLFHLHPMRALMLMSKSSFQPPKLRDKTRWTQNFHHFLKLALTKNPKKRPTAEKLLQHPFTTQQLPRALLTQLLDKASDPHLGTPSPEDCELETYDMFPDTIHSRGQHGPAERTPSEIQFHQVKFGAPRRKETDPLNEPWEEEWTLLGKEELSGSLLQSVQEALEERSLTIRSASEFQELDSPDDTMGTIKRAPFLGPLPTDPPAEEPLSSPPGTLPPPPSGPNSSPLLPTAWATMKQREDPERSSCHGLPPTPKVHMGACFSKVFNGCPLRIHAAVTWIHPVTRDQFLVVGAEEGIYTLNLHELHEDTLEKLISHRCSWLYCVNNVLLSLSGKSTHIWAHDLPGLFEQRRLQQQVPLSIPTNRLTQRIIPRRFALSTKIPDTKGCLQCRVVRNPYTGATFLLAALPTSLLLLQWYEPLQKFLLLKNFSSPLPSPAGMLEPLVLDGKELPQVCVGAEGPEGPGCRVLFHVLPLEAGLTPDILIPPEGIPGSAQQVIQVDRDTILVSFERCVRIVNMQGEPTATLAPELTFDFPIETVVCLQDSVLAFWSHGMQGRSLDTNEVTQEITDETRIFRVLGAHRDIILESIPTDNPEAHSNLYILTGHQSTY
# [41] = biological target: Dual specificity protein kinase CLK4 (Homo sapiens, UniProt Q9HAZ1); format: functional
# Dual specificity protein kinase CLK4, sequence (Q9HAZ1 whole entry): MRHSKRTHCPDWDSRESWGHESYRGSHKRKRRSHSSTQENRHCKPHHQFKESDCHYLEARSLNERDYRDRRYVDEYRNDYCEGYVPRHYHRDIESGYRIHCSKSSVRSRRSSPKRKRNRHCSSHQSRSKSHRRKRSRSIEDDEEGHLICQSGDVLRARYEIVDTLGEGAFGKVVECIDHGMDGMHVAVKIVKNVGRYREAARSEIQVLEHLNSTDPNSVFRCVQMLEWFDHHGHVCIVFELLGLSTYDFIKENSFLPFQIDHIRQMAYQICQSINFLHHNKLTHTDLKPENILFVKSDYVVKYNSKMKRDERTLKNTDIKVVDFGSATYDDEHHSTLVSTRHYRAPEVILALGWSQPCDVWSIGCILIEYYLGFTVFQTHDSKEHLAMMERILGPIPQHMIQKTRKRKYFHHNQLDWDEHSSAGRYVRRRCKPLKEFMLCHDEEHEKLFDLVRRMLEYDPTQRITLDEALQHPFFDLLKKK
# [42] = biological target: Tyrosine-protein kinase BTK (Homo sapiens, UniProt Q06187); format: functional
# [43] = biological target: Serine/threonine-protein kinase PAK 4 (Homo sapiens, UniProt O96013); format: functional;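 further: value obtained within a kinome profiling panel in which PAK4 was one of the panel members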
# Activin receptor type-1 = Activin receptor type-1 (Homo sapiens, UniProt Q04771); assay: Navigating the Kinome. Panel member name: ACVR1; format: functional
# Focal adhesion kinase 1 = Focal adhesion kinase 1 (Homo sapiens, UniProt Q05397); format: functional;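 further: measured as one member of a kinome panel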
# [44] = biological target: Inhibitor of nuclear factor kappa-B kinase subunit epsilon (Homo sapiens, UniProt Q14164); assay: Navigating the Kinome. Panel member name: IKBKE; format: functional
# [45] = biological target: Macrophage colony-stimulating factor 1 receptor (Homo sapiens, UniProt P07333); format: functional;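 further: value comes from the Navigating the Kinome screening panel, CSF1R member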
# [46] = biological target: Tyrosine-protein kinase receptor TYRO3 (Homo sapiens, UniProt Q06418); format: functional;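 further: TYRO3 value obtained as one member of a kinome-wide profiling panel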
# [47] = biological target: Mitogen-activated protein kinase 8 (Homo sapiens, UniProt P45983); format: functional;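 further: value comes from one member of a kinome-wide kinase profiling panel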
smiles,measurement,setting,value
COc1ccc(-c2nnc(S)[nH]2)cc1,IC50,[1],50.1 µM (active)
same,IC50,Leucine aminopeptidase,39.5 µM (active)
same,EC50,[2],> 112 µM (not active)
same,IC50,[3],> 99 µM (inactive)
same,IC50,[4],> 100 µM (inactive)
same,IC50,Phosphomannomutase 2,> 100 µM (inactive)
same,IC50,[5],1.22 µM (active)
same,IC50,[6],1.95 µM (active)
same,IC50,[7],> 99 µM (inactive)
same,IC50,[8],1.19 µM (active)
same,AC50,[9],0.008 µM (active)
Cc1[nH]c2ccccc2c1C(=O)COC(=O)c1ccc([N+](=O)[O-])s1,CC50,[10],> 20 µM (active)
same,CC50,[11],32.2 µM (active)
same,EC50,[12],1.75 µM (active)
same,CC50,[13],25.7 µM (active)
same,CC50,[14],20.7 µM (active)
same,CC50,[15],29 µM (active)
same,EC50,[16],> 30 µM (not active)
same,CC50,[17],32.3 µM (active)
same,CC50,[18],> 63.9 µM (active)
same,CC50,[19],16.3 µM (active)
same,IC50,cells,3.59 µM (active)
same,CC50,[20],21 µM (active)
same,CC50,[21],29.6 µM (active)
same,CC50,[22],30.3 µM (active)
same,CC50,[23],25.1 µM (active)
CC(C)(O)c1nnc2ccc(-c3c(-c4ccc(F)cc4F)nc4occn34)nn12,Ki,[24],3.16 µM (active)
same,Ki,[25],5.01 µM (active)
same,Ki,[26],2.51 µM (active)
CCc1cnn(Cc2cccc3ccccc23)c(=O)c1C(C#N)c1ccccc1 (centres undefined),IC50,[27],15.2 µM (inactive)
same,IC50,[28],15.2 µM (inactive)
CCn1c(=C(C#N)C(=O)O)sc(=CNc2ccccc2)c1=O,Ki,[29],1.58 µM (active)
same,Ki,[30],5.01 µM (active)
same,Ki,[31],6.31 µM (active)
same,Ki,[32],5.01 µM (active)
same,Ki,[33],1.58 µM (active)
same,Ki,[34],1.58 µM (active)
Clc1cc2nnc(-c3ccccc3)n2cn1,Ki,Aurora kinase B,25.1 µM (active)
same,Ki,[35],63.1 µM (active)
same,Ki,[36],79.4 µM (active)
same,Ki,[37],39.8 µM (active)
same,Ki,[38],15.8 µM (active)
same,Ki,[39],20 µM (active)
same,Ki,[40],12.6 µM (active)
same,Ki,[41],63.1 µM (active)
same,Ki,[42],50.1 µM (active)
Nc1nc2ncc(-c3ccccc3)cn2n1,Ki,[43],25.1 µM (active)
same,Ki,Activin receptor type-1,39.8 µM (active)
same,Ki,Focal adhesion kinase 1,100 µM (active)
same,Ki,[36],31.6 µM (active)
same,Ki,[37],25.1 µM (active)
same,Ki,[24],50.1 µM (active)
same,Ki,[44],63.1 µM (active)
same,Ki,[45],100 µM (active)
same,Ki,[46],50.1 µM (active)
same,Ki,[33],50.1 µM (active)
same,Ki,[40],79.4 µM (active)
same,Ki,[41],15.8 µM (active)
same,Ki,[47],50.1 µM (active)
